Tests used:
H9 hES cells = assay: hES colony number formation, H9; assay type: cell-based, human; conditions: H9 line
Text: The human ES cell lines HSF-6 (University of California, San Francisco; NIH # UC06, Passage 38-120) and H1 and H9 (WiCell Research Institute, NIH # WA01 and […]) were maintained on mouse embryonic fibroblasts (MEF) according to the suppliers' protocols. Immunocytochemistry and FACS analysis for the expression of Oct4 and SSEA4 and SKY karyotyping established that the starting cells are undifferentiated and have a normal set of chromosomes. For single cell survival experiments, hES colonies were harvested after treatment with 1.5 mg/ml collagenase type IV (Invitrogen), separated from the MEF feeder cells by repeated washing by gravity, gently triturated to break up colonies into small aggregates, further dissociated into a single cell solution by trypsination (0.05% trypsin/0.04% EDTA) and transferred on MEF feeder cells at a density of 10000 cells/ml. Oct-4 positive colonies were counted six days after plating. […]
The pro-survival effects of activation of Notch and inhibition of JAK was tested on HSF-6 (NIH code UC06, http://escell.ucsf.edu), H1 (NIH code WA01, www.wicell.org) and H9 (NIH code WA09, www.wicell.org) hES cells. Singly dissociated hES cells were plated on mouse embryo fibroblasts (MEFs), treated daily for one week and colony numbers counted. […]

p38 MAP kinase = p38 MAP kinase phosphorylation immunoblot in CNS stem cells; assay type: cell-based, mouse
Text: A candidate was p38MAP kinase, known to act downstream of JAK in many cells including CNS stem cells. p38 kinase has been implicated both in differentiation and cell cycle regulation, and recently, inhibition of p38 kinase enabled the proliferation of adult mammalian […] (Engel et al., Genes Dev, 2005). Inhibition of JAK blocked CNTF induced phosphorylation of p38 (FIG. 2g).

[1] = system: adult rat subventricular zone (SVZ); assay: Dividing (BrdU+) cells in SVZ after single lateral ventricle injection; assay type: in vivo; conditions: BrdU for 3 days, sacrificed on the 5th day
Experimental: In vivo, Notch and insulin also increase the number of dividing cells in the adult rat subventricular zone (SVZ) 5 days after a single injection It was determined that Notch and insulin co-operate to promote new (BrdU+) cells in vivo. Specifically, the reagents infused in the lateral ventricle of adult rats as a single injection. The rats were then given BrdU for 3 days and sacrificed on the 5th day (Table 10).

[2] = system: mouse fetal central nervous system stem cell cultures; assay: Survival of fetal CNS stem cell cultures with insulin and Dll4; assay type: cell-based
Experimental: As there was a tight correlation between the Notch survival pathway and Hes3, it was investigated as to whether Hes3 is a mediator of the Notch pro-survival signalling. It was determined that both insulin and Notch activation promote the survival of foetal and adult neural stem cell cultures and their effects are additive (Tables 8-9).

[3] = system: cultures from Hes3 knock-out mice; assay: Survival of adult SVZ stem cell cultures, Hes3 knock-out mice; assay type: cell-based, mouse; conditions: Hes3 knock-out culture
Experimental: (§1) It was determined that adult mouse subventricular zone central nervous system stem cell cultures from wild-type mice respond to D114 by generating twenty-four times more cells, whereas cultures from Hes3 knock-out mice respond to D114 by generating only three times more cells. Thus, in adult mouse neural stem cell cultures, D114 greatly promotes the survival of wild-type cells (23.7±1.7 fold increase), whereas it only slightly stimulates Hes3 knock-out culture survival (2.9±0.2 fold increase).

nucleostemin, SHH = assay: Nucleostemin and SHH protein expression in CNS stem cells; assay type: cell-based, mouse
Text: The interest in stem cell self-renewal mechanisms prompted analysis of potential down-stream components of the Notch/STAT3-Ser727 (Notch/sSTAT) pathway. Nucleostemin is a p53-binding protein expressed in self-renewing CNS stem cells and cancer cells (Tsai et al., J Neurosci 20:3725-35, 2000; Tsai et al., J Cell Biol 168:179-84, 2005). Sonic Hedgehog (SHH) is a protein with functions in fate specification and stem cell survival in the fetal and adult CNS (Palma et al., Development 132:335-44, 2005).
There are two forms of mRNA encoded by the Hes3 gene, Hes3a and Hes3b.

[4] = system: adult mouse subventricular zone central nervous system stem cell cultures from wild-type mice; assay: Survival of adult SVZ stem cell cultures, wild-type mice; assay type: cell-based
Experimental: as §1

Row | Compound | colony number formation (H9 hES cells) | phosphorylation of p38 MAP kinase at Thr180/Tyr182 (p38 MAP kinase) | Cell # [1] | Cell # [2] | survival, fold increase in cells [3] [fold] | nucleostemin and SHH protein expression (nucleostemin, SHH) | survival, fold increase in cells [4] [fold]
1 | CC(C)(C)c1nc2c3ccc(F)cc3c3c(=O)[nH]ccc3c2[nH]1 [JAK Inhibitor, 2-(1,1-Dimethylethyl)-9-fluoro-3,6-dihydro-7H-benz[h]-imidaz[4,5-f]isoquinolin-7-one] | 347.6%±59.5 | reduced the levels of phosphorylation | – | – | – | – | –
2 | Delta-4: soluble Notch ligand Delta-4 (1389-D4) from R&D | – | – | High | High | 2.9±0.2 | induced nucleostemin and SHH protein expression | 23.7±1.7
